Laboratory results reported in patent US10626100B2, “Selective HDAC6 inhibitors” (The Trustees of Columbia University in the City of New York, priority 2013, dated 2020).
Entries after “also recorded” stand apart in the source; their conditions may differ.

Tests used:
[1] = tested on: LNCaP (human prostate adenocarcinoma) cells; assay: Cell growth and viability of LNCaP cells; assay type: cell-based
Protocol: FIG. 3. Cell growth of HFS (normal) and LNCaP (transformed) cells treated with compound 8 over 72 h.
FIG. 4. Cell viability of HFS (normal) and LNCaP (transformed) cells treated with compound 8 over 72 h.
(§1) Recombinant HDAC1 and HDAC6 are used to evaluate the selective inhibitory potency of each compound. Cell based assays: Normal cells (Human Foreskin Fibroblast cells), LNCaP (human prostate cancer cells), MCF-7 (human breast cancer cells, A549 (human adenocarcinoma of lung cells) and ARP-1 (human multiple myeloma cells) are used in these assays. Cells were cultured for up to 72 hr without and with the potential HDAC6-selective inhibitor. SAHA was used as a control. Cell number and cell viability were determined by enumeration. Proteins were extracted from cells and assayed for accumulation of acetylated tubulin and acetylated histones. All methods are described in Namdar et al., PNAS, 2010, 107:20003-8. In vivo animal studies: Potential HDAC6 inhibitor compounds are further assayed by administration to mice for up to 5 days with daily injections. Animals are sacrificed and tissues are analyzed for accumulation of acetylated tubulin and acetylated histones.
The effect of compound 8 on the cell growth and viability of normal (HFS, human foreskin fibroblast) and transformed (LNCaP, human prostate adenocarcinoma) cells cultured with 8, 16, 32 or 64 μM HPB for up to 72 h was evaluated.

Mouse toxicity study = assay type: in vivo; details: mice, intraperitoneal, daily for 5 days, 100, 200, or 300 mg/kg
Protocol: FIG. 6. Average weight of immune-deficient mice treated daily by 30 μL intraperitoneal injection with indicated doses of compound 8. DMSO is the vehicle control.
(§2) Toxicity of compound 8 in mice was determined. […] Mice were intraperitoneally injected daily for 5 days with 100, 200, or 300 mg/kg compound 8. […] The effects of compound 8 on the acetylation of alpha-tubulin and histones in the spleen isolated from mice treated with compound 8 were analyzed at three time points after the administration of the drug.

[2] = tested on: acetylated alpha-tubulin and acetylated histone H3 in spleen; assay: Acetylation of alpha-tubulin and histones in spleen of treated mice; assay type: in vivo
Protocol: FIG. 7. Immunoblots of spleens harvested at indicated times after the last injection. Immune-deficient mice were treated daily by 30 μL intraperitoneal injection with indicated doses of compound 8. DMSO is the vehicle control. Western blots of acetylated alpha-tubulin (Acet-Tub) and acetylated histone H3 (Acet-H3). Western blots of HSP90 and total histone H3 (Total-H3) are loading controls.
as §1, §2

[3] = tested on: acetylated alpha-tubulin and histones in CWR22 tumors and spleen; assay: Acetylated lysine patterns in CWR22 tumors and spleen; assay type: in vivo, nude mice
From the text: Tumors and spleen are removed from the animals, and histones and proteins are extracted for the detection of acetylated lysine patterns.

O=C(NO)c1ccc(CN(CCO)C(=O)Cc2ccccc2)cc1 [Compound 8, N-hydroxy-4-((N-(2-hydroxyethyl)-2-phenylacetamido)methyl) benzamide]
cell growth (cell number) ([1]; LNCaP, 8, 16, 32 or 64 μM, up to 72 h, FIG. 3): inhibited cell growth of normal and transformed cells in a concentration dependent manner; also recorded: inhibited cell number | cell death / cell viability ([1]; LNCaP, 8, 16, 32 or 64 μM, up to 72 h, FIG. 4): did not induce cell death of normal or transformed cells; also recorded: does not decrease cell viability | death of LNCaP cells ([1]; concentrations as high as 32 μM): no detectable death of LNCaP cells | tolerability in animals (Mouse toxicity study): well tolerated | weight loss (Mouse toxicity study; FIG. 6): no weight loss | accumulation of acetylated tubulin in the spleen ([2]; 1.5 h after injection, FIG. 7): increased accumulation of acetylated tubulin | accumulation of acetylated tubulin in the spleen ([2]; 5 h after injection): reduced to the level seen in vehicle-treated controls | accumulation of acetylated histones in the spleen ([2]; FIG. 7): no detectable accumulation of acetylated histones | accumulation of acetylated alpha-tubulin in CWR22 tumors and spleen, combination with etoposide ([3]; combination of compound 8 and etoposide): increased accumulation of acetylated alpha-tubulin | accumulation of histones in tumors, combination with etoposide ([3]; combination of etoposide and compound 8): Increased levels of accumulation of histones | accumulation of histones in tumors, single agent ([3]; mice injected with compound 8 alone or etoposide): not with compound 8 alone | accumulation of acetylated alpha-tubulin in CWR22 tumors and spleen, single agent ([3]; mice treated with compound 8 or etoposide): increased accumulation of acetylated alpha-tubulin
